Reference: PubChem BioAssay (NCI)
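Cultured in 96-well plates, cells were exposed to test compound for 48 hours across five concentrations. Here, GI50 denotes the concentration required for 50% inhibition of growth. TGI: concentration producing complete growth inhibition.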

Legend:
Test in all cases: NCI-60 cell line screen, 48 h
MDA-MB-435 = tested on: MDA-MB-435
UACC-62 melanoma = tested on: UACC-62 melanoma
MOLT-4 leukemia = tested on: MOLT-4 leukemia
NCI-H23 lung = tested on: NCI-H23 lung
HOP-92 NSCLC = tested on: HOP-92 NSCLC
CCRF-CEM leukemia = tested on: CCRF-CEM leukemia
MALME-3M melanoma = tested on: MALME-3M melanoma
RXF 393 renal = tested on: RXF 393 renal
MCF7 breast = tested on: MCF7 breast
NCI-H460 lung = tested on: NCI-H460 lung
MDA-MB-231 breast = tested on: MDA-MB-231 breast
SN12C renal = tested on: SN12C renal
HL-60(TB) leukemia = tested on: HL-60(TB) leukemia
HT29 colon = tested on: HT29 colon
SNB-75 CNS = tested on: SNB-75 CNS
EKVX NSCLC = tested on: EKVX NSCLC
OVCAR-5 ovarian = tested on: OVCAR-5 ovarian
HCT-15 colon = tested on: HCT-15 colon
PC-3 prostate = tested on: PC-3 prostate
M14 melanoma = tested on: M14 melanoma
SK-MEL-5 melanoma = tested on: SK-MEL-5 melanoma
SK-MEL-28 melanoma = tested on: SK-MEL-28 melanoma
K-562 leukemia = tested on: K-562 leukemia
IGROV1 ovarian = tested on: IGROV1 ovarian
SF-295 CNS = tested on: SF-295 CNS
CAKI-1 renal = tested on: CAKI-1 renal
BT-549 breast = tested on: BT-549 breast
RPMI-8226 leukemia = tested on: RPMI-8226 leukemia
A549 NSCLC = tested on: A549 NSCLC
ACHN renal = tested on: ACHN renal
T-47D breast = tested on: T-47D breast
DU-145 prostate = tested on: DU-145 prostate
SNB-19 CNS = tested on: SNB-19 CNS
OVCAR-8 ovarian = tested on: OVCAR-8 ovarian
HCT-116 colon = tested on: HCT-116 colon
HOP-62 NSCLC = tested on: HOP-62 NSCLC
OVCAR-3 ovarian = tested on: OVCAR-3 ovarian
KM12 colon = tested on: KM12 colon
NCI/ADR-RES ovarian = tested on: NCI/ADR-RES ovarian
UACC-257 melanoma = tested on: UACC-257 melanoma
A498 renal = tested on: A498 renal
HCC-2998 colon = tested on: HCC-2998 colon
SK-MEL-2 melanoma = tested on: SK-MEL-2 melanoma
SF-539 CNS = tested on: SF-539 CNS
SK-OV-3 ovarian = tested on: SK-OV-3 ovarian
SF-268 CNS = tested on: SF-268 CNS
786-0 renal = tested on: 786-0 renal
COLO 205 colon = tested on: COLO 205 colon
SW-620 colon = tested on: SW-620 colon
HS 578T breast = tested on: HS 578T breast
TK-10 renal = tested on: TK-10 renal
LOX IMVI melanoma = tested on: LOX IMVI melanoma
NCI-H226 lung = tested on: NCI-H226 lung
SR leukemia = tested on: SR leukemia
OVCAR-4 ovarian = tested on: OVCAR-4 ovarian
U251 CNS = tested on: U251 CNS
NCI-H522 lung = tested on: NCI-H522 lung
UO-31 renal = tested on: UO-31 renal

## O=C(/C=C\c1ccc(O)c(O)c1)c1ccccc1O
MDA-MB-435
  GI50: 6.45 µM
  TGI: 39.4 µM
UACC-62 melanoma
  GI50: 12.1 µM
  TGI: 26.1 µM
MOLT-4 leukemia
  GI50: 1890 nM
  TGI: 97.5 µM
NCI-H23 lung
  GI50: 12.7 µM
  TGI: 32.8 µM
HOP-92 NSCLC
  GI50: 3.77 µM
  TGI: 27.7 µM
CCRF-CEM leukemia
  GI50: 645 nM
  TGI: > 100 µM
MALME-3M melanoma
  GI50: 11.4 µM
  TGI: 32.5 µM
RXF 393 renal
  GI50: 4.21 µM
  TGI: 17.2 µM
MCF7 breast
  GI50: 14.6 µM
  TGI: > 100 µM
NCI-H460 lung
  GI50: 15.1 µM
  TGI: 49.8 µM
MDA-MB-231 breast
  GI50: 9.51 µM
  TGI: 37 µM
SN12C renal
  GI50: 11.8 µM
  TGI: 37.5 µM
HL-60(TB) leukemia
  GI50: 2400 nM
  TGI: 6.05 µM
HT29 colon
  GI50: 18.4 µM
  TGI: 47.1 µM
SNB-75 CNS
  GI50: 14.7 µM
  TGI: 94.3 µM
EKVX NSCLC
  GI50: 14.4 µM
  TGI: > 100 µM
OVCAR-5 ovarian
  GI50: 18 µM
  TGI: 40.4 µM
HCT-15 colon
  GI50: 2520 nM
  TGI: 19.1 µM
PC-3 prostate
  GI50: 13.4 µM
  TGI: 89.8 µM
M14 melanoma
  GI50: 12.9 µM
  TGI: 29.9 µM
SK-MEL-5 melanoma
  GI50: 11.4 µM
  TGI: 28.4 µM
SK-MEL-28 melanoma
  GI50: 15.1 µM
  TGI: 42.7 µM
K-562 leukemia
  GI50: 12.5 µM
  TGI: 71.5 µM
IGROV1 ovarian
  GI50: 711 nM
  TGI: 23.8 µM
SF-295 CNS
  GI50: 17.7 µM
  TGI: 54.4 µM
CAKI-1 renal
  GI50: 4.45 µM
  TGI: 40 µM
BT-549 breast
  GI50: 3.61 µM
  TGI: 18.8 µM
RPMI-8226 leukemia
  GI50: 578 nM
  TGI: 29.6 µM
A549 NSCLC
  GI50: 17.1 µM
  TGI: > 100 µM
ACHN renal
  GI50: 8.31 µM
  TGI: 24 µM
T-47D breast
  GI50: 5.57 µM
  TGI: 45.5 µM
DU-145 prostate
  GI50: 11.7 µM
  TGI: 45.3 µM
SNB-19 CNS
  GI50: 17.4 µM
  TGI: 91.8 µM
OVCAR-8 ovarian
  GI50: 14.7 µM
  TGI: 56.8 µM
HCT-116 colon
  GI50: 11.9 µM
  TGI: 24.9 µM
HOP-62 NSCLC
  GI50: 12.6 µM
  TGI: 50.8 µM
OVCAR-3 ovarian
  GI50: 8.86 µM
  TGI: 24.2 µM
KM12 colon
  GI50: 11.8 µM
  TGI: 27.6 µM
NCI/ADR-RES ovarian
  GI50: 10.8 µM
  TGI: 36.1 µM
UACC-257 melanoma
  GI50: 12.8 µM
  TGI: 44 µM
A498 renal
  GI50: 16 µM
  TGI: 32.8 µM
HCC-2998 colon
  GI50: 13.9 µM
  TGI: 27 µM
SK-MEL-2 melanoma
  GI50: 12 µM
  TGI: 41.7 µM
SF-539 CNS
  GI50: 6.69 µM
  TGI: 26.5 µM
SK-OV-3 ovarian
  GI50: 17.7 µM
  TGI: 71.6 µM
SF-268 CNS
  GI50: 12.1 µM
  TGI: 59 µM
786-0 renal
  GI50: 10.6 µM
  TGI: 23.3 µM
COLO 205 colon
  GI50: 8.99 µM
  TGI: 21.6 µM
SW-620 colon
  GI50: 11.3 µM
  TGI: 26.4 µM
HS 578T breast
  GI50: 17.2 µM
  TGI: 81.9 µM
TK-10 renal
  GI50: 18.2 µM
  TGI: > 100 µM
LOX IMVI melanoma
  GI50: 11 µM
  TGI: 23.1 µM
NCI-H226 lung
  GI50: 11 µM
  TGI: 39.1 µM
SR leukemia
  GI50: 3170 nM
  TGI: 69.8 µM
OVCAR-4 ovarian
  GI50: 8.73 µM
  TGI: 98.7 µM
U251 CNS
  GI50: 7.95 µM
  TGI: 33.1 µM
NCI-H522 lung
  GI50: 214 nM
  TGI: 0.809 µM
UO-31 renal
  GI50: 2200 nM
  TGI: 18 µM

## CNC(=O)Oc1cc(C(C)C)ccc1Sc1ccc(C(C)C)cc1OC(=O)NC
MDA-MB-435
  GI50: 2.29 µM
  TGI: 10 µM
UACC-62 melanoma
  GI50: 4.24 µM
  TGI: 16.5 µM
MOLT-4 leukemia
  GI50: 2960 nM
  TGI: 20.1 µM
NCI-H23 lung
  GI50: 6.5 µM
  TGI: 23.6 µM
HOP-92 NSCLC
  GI50: 2.63 µM
  TGI: 9.85 µM
CCRF-CEM leukemia
  GI50: 3410 nM
  TGI: 46.3 µM
MALME-3M melanoma
  GI50: 4.75 µM
  TGI: 20.5 µM
RXF 393 renal
  GI50: 2.52 µM
  TGI: 9.34 µM
MCF7 breast
  GI50: 5.49 µM
  TGI: 18.2 µM
NCI-H460 lung
  GI50: 2.44 µM
  TGI: 11 µM
MDA-MB-231 breast
  GI50: 5.48 µM
  TGI: 19.4 µM
SN12C renal
  GI50: 7 µM
  TGI: 24 µM
HL-60(TB) leukemia
  GI50: 3060 nM
  TGI: 12.7 µM
HT29 colon
  GI50: 12.6 µM
  TGI: 27.4 µM
SNB-75 CNS
  GI50: 2.88 µM
  TGI: 12.2 µM
EKVX NSCLC
  GI50: 1.59 µM
  TGI: 7.14 µM
OVCAR-5 ovarian
  GI50: 11.4 µM
  TGI: 25.7 µM
HCT-15 colon
  GI50: 1950 nM
  TGI: 16.1 µM
PC-3 prostate
  GI50: 2.97 µM
  TGI: 16.9 µM
M14 melanoma
  GI50: 3.61 µM
  TGI: 16.3 µM
SK-MEL-5 melanoma
  GI50: 2.5 µM
  TGI: 11.8 µM
SK-MEL-28 melanoma
  GI50: 4.99 µM
  TGI: 17.9 µM
K-562 leukemia
  GI50: 1.27 µM
  TGI: 14.5 µM
IGROV1 ovarian
  GI50: 4980 nM
  TGI: 23.8 µM
CAKI-1 renal
  GI50: 3.34 µM
  TGI: 17.1 µM
BT-549 breast
  GI50: 3.44 µM
  TGI: 12 µM
RPMI-8226 leukemia
  GI50: 1830 nM
  TGI: 7.48 µM
A549 NSCLC
  GI50: 5.22 µM
  TGI: 18.4 µM
ACHN renal
  GI50: 6.92 µM
  TGI: 24.4 µM
T-47D breast
  GI50: 10.2 µM
  TGI: 25.9 µM
DU-145 prostate
  GI50: 4.32 µM
  TGI: 14.3 µM
SNB-19 CNS
  GI50: 9.57 µM
  TGI: 24.4 µM
OVCAR-8 ovarian
  GI50: 5.42 µM
  TGI: 27.9 µM
HCT-116 colon
  GI50: 2.68 µM
  TGI: 15.2 µM
HOP-62 NSCLC
  GI50: 9.56 µM
  TGI: 22.6 µM
OVCAR-3 ovarian
  GI50: 4.39 µM
  TGI: 14.7 µM
KM12 colon
  GI50: 5.78 µM
  TGI: 18.9 µM
NCI/ADR-RES ovarian
  GI50: 3.9 µM
  TGI: 18.6 µM
UACC-257 melanoma
  GI50: 5.81 µM
  TGI: 20.3 µM
A498 renal
  GI50: 12 µM
  TGI: 25 µM
HCC-2998 colon
  GI50: 12.2 µM
  TGI: 27.7 µM
SK-MEL-2 melanoma
  GI50: 4.21 µM
  TGI: 17.3 µM
SF-539 CNS
  GI50: 4.07 µM
  TGI: 17.1 µM
SK-OV-3 ovarian
  GI50: 10.5 µM
  TGI: 23.7 µM
SF-268 CNS
  GI50: 5.36 µM
  TGI: 19.4 µM
786-0 renal
  GI50: 11.5 µM
  TGI: 28.7 µM
COLO 205 colon
  GI50: 14.4 µM
  TGI: 28.8 µM
SW-620 colon
  GI50: 5.01 µM
  TGI: 20.1 µM
HS 578T breast
  GI50: 4.7 µM
  TGI: 35.6 µM
TK-10 renal
  GI50: 14 µM
  TGI: 30.3 µM
LOX IMVI melanoma
  GI50: 6.09 µM
  TGI: 27.6 µM
NCI-H226 lung
  GI50: 10 µM
  TGI: 25.5 µM
SR leukemia
  GI50: 2200 nM
  TGI: 10 µM
U251 CNS
  GI50: 3.5 µM
  TGI: 15.6 µM
NCI-H522 lung
  GI50: 4980 nM
  TGI: 19.1 µM
UO-31 renal
  GI50: 3280 nM
  TGI: 16.6 µM
